Assay results reported in patent publication US12077503B2, “Substituted cyclic amides and their use as herbicides” (FMC CORPORATION, priority 2015, dated 2024).

How the values were obtained:
Format in all cases: in vivo
Kochia (Kochia scoparia) [1] = experiment: Test A preemergence; details: for Plant response rating, Kochia: 125 g ai/ha; for Kochia plant response rating (0 to 100 scale, 0 is no effect, 100 is complete control): 500 g ai/ha, visual injury approx. 10 d
Method in brief: (§1)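 In a loam soil and sand blend, planted seeds got a preemergence directed soil spray, and young plants at the one- to two-leaf stage, 2–10 cm high, got a postemergence application; ~10 d greenhouse hold; injury rated visually, 0 = none, 100 = complete control.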

[2] = system: barnyardgrass (Echinochloa crus-galli); experiment: Test A preemergence; details: for Plant response rating, Barnyardgrass: 125 g ai/ha; for Barnyardgrass plant response rating (0 to 100 scale, 0 is no effect, 100 is complete control): 500 g ai/ha, visual injury approx. 10 d
Method in brief: as §1

[3] = system: giant foxtail (Setaria faberii); experiment: Test A preemergence; details: for Plant response rating, Foxtail, Giant: 125 g ai/ha; for Foxtail, Giant plant response rating (0 to 100 scale, 0 is no effect, 100 is complete control): 500 g ai/ha, visual injury approx. 10 d
Method in brief: as §1

[4] = system: pigweed (Amaranthus retroflexus); experiment: Test A preemergence; details: for Plant response rating, Pigweed: 125 g ai/ha; for Pigweed plant response rating (0 to 100 scale, 0 is no effect, 100 is complete control): 500 g ai/ha, visual injury approx. 10 d
[5] = system: ragweed (common ragweed, Ambrosia elatior); experiment: Test A preemergence; details: for Plant response rating, Ragweed: 125 g ai/ha; for Ragweed plant response rating (0 to 100 scale, 0 is no effect, 100 is complete control): 500 g ai/ha, visual injury approx. 10 d
Method in brief: as §1

[6] = system: ryegrass, Italian (Italian ryegrass, Lolium multiflorum); experiment: Test A preemergence; details: for Plant response rating, Ryegrass, Italian: 125 g ai/ha; for Ryegrass, Italian plant response rating (0 to 100 scale, 0 is no effect, 100 is complete control): 500 g ai/ha, visual injury approx. 10 d
Method in brief: as §1

[7] = system: Galium (catchweed bedstraw, Galium aparine); experiment: Test A postemergence
Method in brief: as §1

Kochia (Kochia scoparia) [8] = experiment: Test A postemergence
Method in brief: as §1

[9] = system: barnyardgrass (Echinochloa crus-galli); experiment: Test A postemergence; details: for Barnyardgrass plant response rating: 125 g ai/ha, visual injury rating on 0 to 100 scale (0 no effect, 100 complete control), approx. 10 d; for Plant response rating, Barnyardgrass: 500 g ai/ha
Method in brief: as §1

[10] = system: blackgrass (Alopecurus myosuroides); experiment: Test A postemergence; details: for Blackgrass plant response rating: 125 g ai/ha, visual injury rating on 0 to 100 scale (0 no effect, 100 complete control), approx. 10 d; for Plant response rating, Blackgrass: 500 g ai/ha
Method in brief: as §1

corn (Zea mays) = experiment: Test A postemergence
Method in brief: as §1

[11] = system: giant foxtail (Setaria faberii); experiment: Test A postemergence
Method in brief: as §1

[12] = system: pigweed (Amaranthus retroflexus); experiment: Test A postemergence
Method in brief: as §1

[13] = system: ragweed (common ragweed, Ambrosia elatior); experiment: Test A postemergence
Method in brief: as §1

[14] = system: ryegrass, Italian (Italian ryegrass, Lolium multiflorum); experiment: Test A postemergence
Method in brief: as §1

[15] = system: wheat (Triticum aestivum); experiment: Test A postemergence
Method in brief: as §1

[16] = system: barnyardgrass (Echinochloa crus-galli); experiment: Test B flooded paddy test; details: Flood, 250 g ai/ha; 0 to 100 scale where 0 is no effect and 100 is complete control; 13 to 15 d
Method in brief: (§2)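 Greenhouse paddy pots with 2-leaf stage plants received compound by direct addition to floodwater 3 cm deep, kept at that level. Scored visually at 13–15 d versus controls (0 no effect; 100 complete control).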

[17] = system: ducksalad (Heteranthera limosa); experiment: Test B flooded paddy test; details: Flood, 250 g ai/ha; 0 to 100 scale where 0 is no effect and 100 is complete control; 13 to 15 d
Method in brief: as §2

rice (Oryra sativa) = experiment: Test B flooded paddy test; details: Flood, 250 g ai/ha; 0 to 100 scale where 0 is no effect and 100 is complete control; 13 to 15 d
Method in brief: as §2

[18] = system: sedge, umbrella (small-flower umbrella sedge, Cyperus difformis); experiment: Test B flooded paddy test; details: Flood, 250 g ai/ha; 0 to 100 scale where 0 is no effect and 100 is complete control; 13 to 15 d
Method in brief: as §2

[19] = Preemergence, visual injury after approximately 10 d, 0 to 100 scale where 0 is no effect and 100 is complete control
[20] = 125 g ai/ha, postemergence, visual rating after approx. 10 d, 0 to 100 scale (0 no effect, 100 complete control)
[21] = Postemergence, 500 g ai/ha, 0 to 100 scale where 0 is no effect and 100 is complete control
[22] = Postemergence, 0 to 100 scale where 0 is no effect and 100 is complete control
[23] = preemergence, 0 to 100 scale (0 no effect, 100 complete control)
[24] = 125 g ai/ha, postemergence, visual injury rating on 0 to 100 scale (0 no effect, 100 complete control), approx. 10 d
[25] = 500 g ai/ha, postemergence, 0 to 100 scale, 0 no effect, 100 complete control
[26] = postemergence, 0 to 100 scale, 0 no effect, 100 complete control

O=C1NCC(c2cc(F)ccc2F)C1C(=O)Nc1ccccc1F (racemic) [Compound 544]
Plant response rating, Kochia (Kochia (Kochia scoparia) [1]; [19]): 0 | Kochia plant response rating (0 to 100 scale, 0 is no effect, 100 is complete control) (Kochia (Kochia scoparia) [1]; Preemergence): 0 | Plant response rating, Barnyardgrass [2, 19]: 30 | Barnyardgrass plant response rating (0 to 100 scale, 0 is no effect, 100 is complete control) ([2]; Preemergence): 80 | Plant response rating, Foxtail, Giant [3, 19]: 70 | Foxtail, Giant plant response rating (0 to 100 scale, 0 is no effect, 100 is complete control) ([3]; Preemergence): 90 | Plant response rating, Pigweed [4, 19]: 0 | Pigweed plant response rating (0 to 100 scale, 0 is no effect, 100 is complete control) ([4]; Preemergence): 0 | Plant response rating, Ragweed [5, 19]: 0 | Ragweed plant response rating (0 to 100 scale, 0 is no effect, 100 is complete control) ([5]; Preemergence): 0 | Plant response rating, Ryegrass, Italian [6, 19]: 0 | Ryegrass, Italian plant response rating (0 to 100 scale, 0 is no effect, 100 is complete control) ([6]; Preemergence): 0 | Plant response rating, Galium [7, 20]: 0 | Plant response rating, Galium [7, 21]: 0 | Plant response rating, Kochia (Kochia (Kochia scoparia) [8]; [20]): 0 | Plant response rating, Kochia (Kochia (Kochia scoparia) [8]; [21]): 0 | Barnyardgrass plant response rating ([9]; postemergence): 20 | Plant response rating, Barnyardgrass [9, 22]: 70 | Blackgrass plant response rating ([10]; postemergence): 0 | Plant response rating, Blackgrass [10, 22]: 0 | Plant response rating, Corn (corn (Zea mays); [20]): 0 | Plant response rating, Corn (corn (Zea mays); [21]): 20 | Plant response rating, Foxtail, Giant [11, 20]: 0 | Plant response rating, Foxtail, Giant [11, 21]: 60 | Plant response rating, Pigweed [12, 20]: 0 | Plant response rating, Pigweed [12, 21]: 0 | Plant response rating, Ragweed [13, 20]: 0 | Plant response rating, Ragweed [13, 21]: 0 | Plant response rating, Ryegrass, Italian [14, 20]: 0 | Plant response rating, Ryegrass, Italian [14, 21]: 0 | Plant response rating, Wheat [15, 20]: 0 | Plant response rating, Wheat [15, 21]: 0 | Plant response rating, Barnyardgrass [16]: 25 | Plant response rating, Ducksalad [17]: 45 | Plant response rating, Rice (rice (Oryra sativa)): 0 | Plant response rating, Sedge, Umbrella [18]: 0

Cc1c(F)ccc(NC(=O)C2C(=O)NCC2c2cc(F)cc(F)c2)c1F (stereo not drawn) [Compound 461]
Plant response rating, Kochia (Kochia (Kochia scoparia) [1]; [23]): 0 | Kochia plant response rating (0 to 100 scale, 0 is no effect, 100 is complete control) (Kochia (Kochia scoparia) [1]; Preemergence): 50 | Plant response rating, Barnyardgrass [2, 23]: 70 | Barnyardgrass plant response rating (0 to 100 scale, 0 is no effect, 100 is complete control) ([2]; Preemergence): 90 | Plant response rating, Foxtail, Giant [3, 23]: 90 | Foxtail, Giant plant response rating (0 to 100 scale, 0 is no effect, 100 is complete control) ([3]; Preemergence): 90 | Plant response rating, Pigweed [4, 23]: 0 | Pigweed plant response rating (0 to 100 scale, 0 is no effect, 100 is complete control) ([4]; Preemergence): 0 | Plant response rating, Ragweed [5, 23]: 0 | Ragweed plant response rating (0 to 100 scale, 0 is no effect, 100 is complete control) ([5]; Preemergence): 0 | Plant response rating, Ryegrass, Italian [6, 23]: 20 | Ryegrass, Italian plant response rating (0 to 100 scale, 0 is no effect, 100 is complete control) ([6]; Preemergence): 20 | Galium plant response rating [7, 24]: 0 | Plant response rating, Galium [7, 25]: 20 | Kochia plant response rating (Kochia (Kochia scoparia) [8]; [24]): 0 | Plant response rating, Kochia (Kochia (Kochia scoparia) [8]; [25]): 0 | Barnyardgrass plant response rating ([9]; postemergence): 80 | Plant response rating, Barnyardgrass [9, 26]: 90 | Blackgrass plant response rating ([10]; postemergence): 0 | Plant response rating, Blackgrass [10, 26]: 0 | Corn plant response rating (corn (Zea mays); [24]): 0 | Plant response rating, Corn (corn (Zea mays); [25]): 0 | Foxtail, Giant plant response rating [11, 24]: 80 | Plant response rating, Foxtail, Giant [11, 25]: 80 | Pigweed plant response rating [12, 24]: 0 | Plant response rating, Pigweed [12, 25]: 0 | Ragweed plant response rating [13, 24]: 0 | Plant response rating, Ragweed [13, 25]: 0 | Ryegrass, Italian plant response rating [14, 24]: 0 | Plant response rating, Ryegrass, Italian [14, 25]: 20 | Wheat plant response rating [15, 24]: 0 | Plant response rating, Wheat [15, 25]: 0 | Plant response rating, Barnyardgrass [16]: 60 | Plant response rating, Ducksalad [17]: 100 | Plant response rating, Rice (rice (Oryra sativa)): 0 | Plant response rating, Sedge, Umbrella [18]: 0
